Test results taken from the OligoGym collection.
Bases are written 5' to 3'; sugars and linkages follow in the same order, as letters with counts (s phosphorothioate, o phosphodiester; PS: all linkages phosphorothioate). The collection does not say whether C is 5-methylated. l = locked nucleic acid (LNA); d = 2'-deoxy (DNA)

molecular target: Tau; assay: rat primary cortical neurons, FLIPR, 25 uM ASO

Row | Sequence | calcium oscillation score
1 | ATTTCCAAATTCACTTTTAC (sugars llddldldddddddddllll, PS) | 143 % of control
2 | ATTTCCAAATTCACTTTTAC (sugars llddlldddddddddldlll, PS) | 112 % of control
3 | ATTTCCAAATTCACTTTTAC (sugars llddlldddddddddlldll, PS) | 122 % of control
4 | ATTTCCAAATTCACTTTTAC (sugars lldldldddddddddldlll, PS) | 122 % of control
5 | ATTTCCAAATTCACTTTTAC (sugars lldllddddddddddlldll, PS) | 85.2 % of control
6 | ATTTCCAAATTCACTTTTAC (sugars lldlldddddddddlddlll, PS) | 35.4 % of control
7 | ATTTCCAAATTCACTTTTAC (sugars lldlldddddddddldldll, PS) | 83 % of control
8 | ATTTCCAAATTCACTTTTAC (sugars lldlldddddddddllddll, PS) | 120 % of control
9 | ATTTCCAAATTCACTTTTAC (sugars lllddldddddddddldlll, PS) | 125 % of control
10 | ATTTCCAAATTCACTTTTAC (sugars lllddldddddddddlldll, PS) | 110 % of control
11 | ATTTCCAAATTCACTTTTAC (sugars llldlddddddddddldlll, PS) | 135 % of control
12 | ATTTCCAAATTCACTTTTAC (sugars llldldddddddddlddlll, PS) | 118 % of control
13 | ATTTCCAAATTCACTTTTAC (sugars llldldddddddddldldll, PS) | 123 % of control
14 | ATTTCCAAATTCACTTTTAC (sugars llldldddddddddllddll, PS) | 131 % of control
15 | ATTTCCAAATTCACTTTTAC (sugars lllldddddddddlddldll, PS) | 110 % of control
16 | ATTTCCAAATTCACTTTTAC (sugars lllldddddddddldlddll, PS) | 137 % of control
17 | ATTTCTCTAATTGTCCA (sugars l4 d10 l3, PS) | 46.8 % of control
18 | ATTTGGAAAGATGAAATTTG (sugars l3 d14 l3, PS) | 0 % of control
19 | ATTTTACTACTCTCTTT (sugars l4 d9 l4, PS) | 82 % of control
20 | ATTTTACTACTCTCTTTT (sugars l4 d10 l4, PS) | 75 % of control
21 | ATTTTACTACTCTCTTTTC (sugars l4 d11 l4, PS) | 70.6 % of control
22 | ATTTTACTACTCTCTTTTCT (sugars l3 d14 l3, PS) | 68 % of control

Row | Sequence | calcium oscillation score
23 | ATTTTTACCAATTTGCC (sugars l2 d11 l4, PS) | 57 % of control
24 | CAAAACATTCTCACCAAACC (sugars l4 d14 l2, PS) | 84.8 % of control
25 | CAAAATCCTTAATTTAACCA (sugars l4 d12 l4, PS) | 60.6 % of control
26 | CAAACAATCCATTTATATT (sugars l4 d11 l4, PS) | 69.3 % of control
27 | CAAACAATCCATTTATATTC (sugars l4 d12 l4, PS) | 55.5 % of control
28 | CAAACAGGATACAGT (sugars l3 d9 l3, PS) | 49.6 % of control
29 | CAAACCAACTCAACATTACC (sugars l4 d14 l2, PS) | 94.7 % of control
30 | CAAACCACTCTTATTCTTT (sugars l3 d12 l4, PS) | 83.2 % of control
31 | CAAACCACTCTTATTCTTTA (sugars l4 d13 l3, PS) | 68.5 % of control
32 | CAAACCAGTTACCATCA (sugars l4 d9 l4, PS) | 87.7 % of control
33 | CAAACTTTTACTCTGAC (sugars l4 d9 l4, PS) | 63.8 % of control
34 | CAAATCAATTCTCATTTCAA (sugars l4 d12 l4, PS) | 65.7 % of control
35 | CAACAAACATCTAAACACCT (sugars l4 d13 l3, PS) | 78.9 % of control
36 | CAACAATCCAACCACTAA (sugars l4 d10 l4, PS) | 74.1 % of control
37 | CAACAATCCAACCACTAAA (sugars l4 d11 l4, PS) | 89.8 % of control
38 | CAACAGATATTCATTCC (sugars l4 d9 l4, PS) | 60.6 % of control
39 | CAACATTTGCACTCTC (sugars l4 d8 l4, PS) | 67.7 % of control
40 | CAACATTTGCACTCTCT (sugars l2 d11 l4, PS) | 53 % of control
41 | CAACTCAAACACTAACTT (sugars l4 d10 l4, PS) | 64.5 % of control
42 | CAACTCAACATTACCCTTA (sugars l4 d13 l2, PS) | 81.1 % of control
43 | CAACTCAACATTACCCTTAA (sugars l3 d14 l3, PS) | 68 % of control
44 | CAACTCTTAGCATCCACT (sugars l2 d14 l2, PS) | 51.6 % of control

Row | Sequence | calcium oscillation score
45 | CAACTCTTTGAACACCC (sugars l4 d11 l2, PS) | 76.8 % of control
46 | CAACTCTTTGAACACCCC (sugars l2 d14 l2, PS) | 91.6 % of control
47 | CAACTGATTCCATCACC (sugars l4 d11 l2, PS) | 87.8 % of control
48 | CAACTGGTTTGTAGAC (sugars l3 d10 l3, PS) | 42.9 % of control
49 | CAACTGGTTTGTAGACTATT (sugars l3 d14 l3, PS) | 6.64 % of control
50 | CAACTTTCATCTACTTTTCA (sugars l3 d14 l3, PS) | 94.4 % of control
51 | CAAGAGGCACAAGT (sugars l3 d8 l3, PS) | 36.2 % of control
52 | CAAGAGGCACAAGTC (sugars l3 d9 l3, PS) | 112 % of control
53 | CAAGAGTCACTGCACTGCAT (sugars l3 d14 l3, PS) | 50 % of control
54 | CAATCCATTTATATTCTTTT (sugars l4 d12 l4, PS) | 63.2 % of control
55 | CAATCCTAAACAATGC (sugars l4 d8 l4, PS) | 45.4 % of control
56 | CAATCCTAAACAATGCC (sugars l2 d11 l4, PS) | 41.8 % of control
57 | CAATTAACCGAACTGC (sugars l3 d10 l3, PS) | 89.7 % of control
58 | CAATTCTCAGCACACCA (sugars l4 d11 l2, PS) | 22.5 % of control
59 | CAATTCTCATTTCAACCTTC (sugars l2 d14 l4, PS) | 54.1 % of control
60 | CAATTTGGAAAGATGAAATT (sugars l3 d14 l3, PS) | 3.89 % of control
61 | CACAAACCAACTCAACATTA (sugars l4 d13 l3, PS) | 82.7 % of control
62 | CACAACCCAAGATTCC (sugars l3 d10 l3, PS) | 58.8 % of control
63 | CACAAGTCCTTACAAA (sugars l3 d10 l3, PS) | 194 % of control
64 | CACATGCACCCAACTCTA (sugars l2 d13 l3, PS) | 60.2 % of control
65 | CACATGCTCACACACCAC (sugars l2 d13 l3, PS) | 97.5 % of control
66 | CACATTTGCAAACCACA (sugars l3 d10 l4, PS) | 67.4 % of control

Row | Sequence | calcium oscillation score
67 | CACCACAGTCTTTTAAT (sugars l4 d10 l3, PS) | 73.7 % of control
68 | CACCACTTTAATCTGCCT (sugars l2 d14 l2, PS) | 41.1 % of control
69 | CACCATCCAAGTCAATGCCT (sugars l3 d14 l3, PS) | 24.2 % of control
70 | CACCCAAACTCCAAGTTC (sugars l4 d12 l2, PS) | 53.9 % of control
71 | CACCCACTTTCCTAATTC (sugars l3 d13 l2, PS) | 65.6 % of control
72 | CACCCACTTTCCTAATTCC (sugars l1 d16 l2, PS) | 60.9 % of control
73 | CACCCACTTTCCTAATTCCC (sugars l1 d17 l2, PS) | 55.1 % of control
74 | CACCCATCAATTTGGAAAGA (sugars l3 d14 l3, PS) | 91.5 % of control
75 | CACCCTAAACCATGAT (sugars l3 d10 l3, PS) | 71.4 % of control
76 | CACCCTTACACATAGC (sugars l3 d11 l2, PS) | 60.6 % of control
77 | CACCCTTACACATAGCT (sugars l3 d12 l2, PS) | 55.6 % of control
78 | CACCTCATTAAGATCAC (sugars l3 d10 l4, PS) | 76.6 % of control
79 | CACCTCCTATATTCTCAG (sugars l2 d12 l4, PS) | 75.4 % of control
80 | CACCTCCTGGTTTATG (sugars l3 d10 l3, PS) | 65.3 % of control
81 | CACCTCCTGGTTTATGATGG (sugars l3 d14 l3, PS) | 0 % of control
82 | CACCTTACCACTTTCA (sugars l3 d10 l3, PS) | 115 % of control
83 | CACCTTCAGCCCAACTT (sugars l4 d11 l2, PS) | 41.6 % of control
84 | CACCTTGCTCAGGTCA (sugars l3 d10 l3, PS) | 134 % of control
85 | CACCTTTTCATGTTAAA (sugars l4 d9 l4, PS) | 97.5 % of control
86 | CACCTTTTTCCATCTTACTA (sugars l2 d16 l2, PS) | 67.5 % of control
87 | CACTCAAGAAATGGTTTGCT (sugars l3 d14 l3, PS) | 9.52 % of control
88 | CACTCTAACATCTTAG (sugars l4 d8 l4, PS) | 77.6 % of control

Row | Sequence | calcium oscillation score
89 | CACTCTCTGCATATAT (sugars l4 d9 l3, PS) | 69 % of control
90 | CACTCTCTGCATATATA (sugars l4 d10 l3, PS) | 48 % of control
91 | CACTCTGATACTATTAT (sugars l4 d9 l4, PS) | 69 % of control
92 | CACTGGCGACTTGTACACGA (sugars l3 d14 l3, PS) | 5.18 % of control
93 | CACTGTTACACATTTA (sugars l4 d8 l4, PS) | 70.6 % of control
94 | CACTGTTACACATTTAT (sugars l4 d9 l4, PS) | 68 % of control
95 | CACTTTACACATTAAATTTA (sugars l4 d12 l4, PS) | 60.9 % of control
96 | CACTTTCCTAATTCCCAA (sugars l2 d13 l3, PS) | 72.7 % of control
97 | CACTTTCCTAATTCCCAAA (sugars l3 d14 l2, PS) | 68 % of control
98 | CACTTTCCTAATTCCCAAAT (sugars l2 d16 l2, PS) | 62.1 % of control
99 | CAGAACTAAATTTACC (sugars l4 d8 l4, PS) | 51.1 % of control
100 | CAGAATATTACACCAT (sugars l4 d8 l4, PS) | 102 % of control
101 | CAGACACCACTGGCGACTTG (sugars l3 d14 l3, PS) | 46.5 % of control
102 | CAGACCATCAATTTCCC (sugars l2 d13 l2, PS) | 75.7 % of control
103 | CAGACCATCAATTTCCCT (sugars l2 d14 l2, PS) | 72.5 % of control
104 | CAGAGCTGGGTGGTGTCTTT (sugars l3 d14 l3, PS) | 0 % of control
105 | CAGAGGAACGTGTGGA (sugars l3 d10 l3, PS) | 29.6 % of control
106 | CAGATATTCATTCCCTC (sugars l2 d12 l3, PS) | 64.4 % of control
